The results in this text go back to BindingDB's records for doi:10.1021/acs.jmedchem.5b01516 (Centre Hospitalier Universitaire Vaudois (Chuv), 2016).

This assay concerns the target Presenilin-1 (Homo sapiens, UniProt P49768). As to the kind of experiment: Inhibition of gamma secretase (unknown origin).

Take `CC(C)[C@H](O)C(=O)N[C@@H](C)C(=O)NC1C(=O)N(C)CCc2ccccc21` (stereo partly drawn) [(2S)-2-hydroxy-3-methyl-N-[(1S)-1-{[(1S)-3-methyl-2-oxo-2,3,4,5-tetrahydro-1H-3-benzazepin-1-yl]carbamoyl}ethyl]butanamide]: the IC50 (usually the concentration that gives 50% inhibition) was found to be 0.011 µM.
